Literature values, collected in article PMC4990482 (Nature chemical biology, 2016).

Tested on: EZH2

Structure (SMILES): CC[C@H](C)n1cc(C)c2c(C(=O)NCc3c(C)cc(C)[nH]c3=O)cc(-c3ccc(N4CCNCC4)nc3)cc21 [GSK126]
- selectivity for EZH2 versus EZH1: > 150 fold
